This note sets out measurements from patent publication US10980776B2, “Synergistic pharmaceutical combination for the treatment of squamous cell carcinoma of head and neck” (Piramal Enterprises Limited, priority 2011, dated 2021).

The test system of data set [1] is Detroit-562 cells. As to the kind of experiment: CCK-8 cytotoxicity assay, determination of inhibitory concentrations in Detroit-562 cells. Type of data set: cell-based. The conditions noted are these: 72 hr. How it is done: (§1) Logarithmically growing cells were plated at a density of 3×10^3 cells/well and allowed to recover overnight. […] After 72 hours, cell toxicity was determined by CCK-8 (Cell Counting Kit-8) reagent (Dojindo Molecular Technologies, Japan); WST-8 (2-(2-methoxy-4-nitrophenyl)-3-(4-nitrophenyl)-5-(2, 4-disulfophenyl)]-2H-tetrazolium, monosodium salt) assay. In accordance with the manufacturer's instructions, 5 μl/well CCK-8 reagent was added and plates were incubated for 2 hours. The toxicity was determined by measuring the absorbance on Tecan Sapphire multi-fluorescence micro-plate reader (Tecan, Germany, GmbH) at a wavelength of 450 nm corrected to 650 nm and normalized to controls.
(§2) CCK-8 allows convenient assays using Dojindo's tetrazolium salt, WST [8[(2-(2-methoxy-4-nitrophenyl)-3-(4-nitrophenyl)-5-(2,4-disulfophenyl)-2H-tetrazolium, monosodium salt], which produces a water-soluble formazan dye upon bioreduction in the presence of an electron carrier, 1-Methoxy PMS. CCK-8 solution is added directly to the cells; no pre-mixing of components is required. CCK-8 is a sensitive nonradioactive colorimetric assay for determining the number of viable cells in cell proliferation and cytotoxicity assays. WST-8 is bio-reduced by cellular dehydrogenases to an orange formazan product that is soluble in tissue culture medium. The amount of formazan produced is directly proportional to the number of living cells. The detection sensitivity of cell proliferation assays using WST-8 is higher than assays using the other tetrazolium salts such as MIT, XTT, MTS or WST-1. Optical Density was determined at measurement wavelength of 450 nm and reference wave length of 630 nm.
(§3) The cells were seeded at a density of 3000 cells/well, in a 200 μL in tissue culture grade 96 well plate and were allowed to recover for 24 hrs in a humidified 5%±0.2 CO2 incubator at 37° C.±0.5° C. […] The final DMSO concentration was 0.5% in wells. Plates were incubated for 48 hrs in humidified 5%±0.2 CO2 incubator at 37±0.5° C. After 48 hrs the plates were removed from CO2 incubator and 5 μL of Cell counting Kit (CCK-8) per well was added. The same plate was kept at 37° C. for 3 hrs, and allowed to come to room temperature. The absorbance at a wavelength of 450 nm was read on Tecan safire reader. The percent cytotoxicity was calculated using the following formula.

Data set [2] has as its system Detroit-562 cells. As to the kind of experiment: Combination studies (single and sequential combination dosing), % cytotoxicity in Detroit-562 cells. The following applies: Detroit-562. How it is done: as §1, §2
Sorafenib in the following dose of final concentration 1.8 μM and compound A in the following doses of final concentration 0.5 μM, 1.3 μM and 12.1 μM were analyzed in single dose and in all possible combinations of the dose range for the two anticancer agents mentioned above. The sequence of treatment is as follows; Detroit-562 cells were treated with sorafenib for 0 to 24 hrs. At the end of 24 hrs the cells were washed two times with plain MEM medium. Fresh MEM with 10% serum (200 μL/well) was added, followed by treatment with compound A from 24 hrs to 96 hrs.
Sorafenib in the following dose of final concentration 1.8 μM and compound B in the following doses of final concentration 2.7 μM, 14.1 μM and 25.2 μM were analyzed in single dose and in all possible combinations of the dose range for the two anticancer agents mentioned above. The sequence of treatment is as follows; the Detroit-562 cells were treated with sorafenib for 0 to 24 hrs. At the end of 24 hrs the cells were washed two times with plain MEM medium. Fresh MEM with 10% serum (200 μL/well) was added, followed by treatment with compound B from 24 hrs to 96 hrs.
Lapatinib in the following dose of final concentration 1 μM and compound A in the following doses of final concentration 0.5 μM, 1.3 μM and 12.1 μM were analyzed in single dose and in all possible combinations of the dose range for the two anticancer agents mentioned above. The sequence of treatment is as follows; the Detroit-562 cells were treated with lapatinib for 0 to 24 hrs. At the end of 24 hrs the cells were washed two times with plain MEM medium. Fresh MEM with 10% serum (200 μL/well) was added, followed by treatment with compound A from 24 hrs to 96 hrs.
Lapatinib in the following dose of final concentration 1.0 μM and compound B in the following doses of final concentration 2.7 μM, 14.1 μM and 25.2 μM were analyzed in single dose and in all possible combinations of the dose range for the two drugs mentioned above. The sequence of treatment is as follows; the Detroit-562 cells were treated with lapatinib for 0 to 24 hrs. At the end of 24 hrs the cells were washed two times with plain MEM medium. Fresh MEM with 10% serum (200 μL/well) was added, followed by treatment with compound A from 24 hrs to 96 hrs.

In data set [3] the test system is FADU cells. The following applies: for % Cytotoxicity: FADU.
The test system of data set [4] is SCC-25 cells. Briefly: CCK-8 cytotoxicity assay, determination of inhibitory concentrations in SCC-25 cells. The conditions noted are these: SCC-25 cells, 72 hr. Type of data set: cell-based. Here is the method:
as §1, §2, §3

For data set [5], the system named is FADU cells. Briefly: CCK-8 cytotoxicity assay, determination of inhibitory concentrations in FADU cells. In kind it is cell-based, human. The conditions noted are these: 72 hr. Here is the method: as §1, §2, §3
The subject of data set [6] is FaDu (hypopharyngeal squamous cell carcinoma) xenografts. As to the kind of experiment: In vivo efficacy in human head and neck cancer FaDu xenografts. The conditions noted are these: FaDu xenografts in SCID mice; end of treatment, after 18 days; Compound A 35 mpk i.p. once daily 5 days a week; cisplatin 1 mpk i.p. once a week; cetuximab 2.5 mpk twice a week; 3 weeks.
Experimental: In-vivo studies were carried out according to the method described in Clinical cancer search, 2003, 9, 6052-6061; the disclosure of which is incorporated herein by reference for the teaching of the assay.
The in-vivo studies were carried out using Xenograft models in Severe combined immune deficiency (SCID) mice strain—CbySmn.CB17-Prkdcscid/J, by the method described below. The statistically significant number of mice per group (n=6) was chosen in order to be able to statistically evaluate the study data.
FaDu cells were grown in MEM (minimum essential media) medium containing non-essential amino acids and 10% fetal calf serum in 5% CO2 incubator at 37° C. Cells were pelleted by centrifugation at 1000 rpm for 10 minutes. Cells were resuspended in pre-chilled mixture of saline to get a count of 6×10^6 cells per mL; 0.2 ml of this cell suspension was kept on ice and injected by subcutaneous (s.c.) route in SCID mice. Mice were observed every alternate day for palpable tumor mass. Once the tumor size reached a size of 3-5 mm in diameter, animals were randomized into respective groups of treatment and untreated controls. The treatment groups comprised of 5 groups viz. […] The control group received no treatment.
Measurement of tumor was done every 2-3 days apart. Growth inhibition percentage (GI %) was calculated at the end of experiment.

Data set [7] relates to SCC-25 cells. Briefly: Combination studies (single and sequential combination dosing), % cytotoxicity in SCC-25 cells. The following applies: SCC-25; single agent at IC70 (compound A 4.1 μM). Here is the method: as §1, §2
Sorafenib in the following dose of final concentration 0.18 μM and compound A in the following doses of final concentration 0.1 μM, 0.4 μM and 4.1 μM were analyzed in single dose and in all possible combinations of the dose range for the two anticancer agents mentioned above. The sequence of treatment is as follows; the SCC-25 cells were treated with sorafenib for 0 to 24 hrs. At the end of 24 hrs the cells were washed two times with plain MEM (minimum essential media) medium. Fresh MEM with 10% serum (200 μL/well) was added, followed by treatment with compound A from 24 hrs to 96 hrs.
Sorafenib in the following dose of final concentration 0.18 μM and compound B in the following doses of final concentration 0.2 μM, 1.1 μM and 4.8 μM were analyzed in single dose and in all possible combinations of the dose range for the two anticancer agents mentioned above. The sequence of treatment is as follows; the SCC-25 cells were treated with sorafenib for 0 to 24 hrs. At the end of 24 hrs the cells were washed two times with plain MEM medium. Fresh MEM with 10% serum (200 μL/well) was added, followed by treatment with compound B from 24 hrs to 96 hrs.
Lapatinib in the following dose of final concentration 0.2 μM and compound A in the following doses of final concentration 0.2 μM, 0.5 μM and 3.3 μM were analyzed in single dose and in all possible combinations of the dose range for the two drugs mentioned above. The sequence of treatment is as follows; the SCC-25 cells were treated with lapatinib for 0 to 24 hrs. At the end of 24 hrs the cells were washed two times with plain MEM medium. Fresh MEM with 10% serum (200 μL/well) was added, followed by treatment with compound A from 24 hrs to 96 hrs.
Lapatinib in the following dose of final concentration 0.2 μM and compound B in the following doses of final concentration 0.2 μM, 1.1 μM and 4.8 μM were analyzed in single dose and in all possible combinations of the dose range for the two drugs mentioned above. The sequence of treatment is as follows; the SCC-25 cells were treated with lapatinib for 0 to 24 hrs. At the end of 24 hrs the cells were washed two times with plain MEM medium. Fresh MEM with 10% serum (200 μL/well) was added, followed by treatment with compound A from 24 hrs to 96 hrs.

[8] abbreviates: single agent at IC70, cisplatin/5-FU/compound A study.
The mark [9] stands for this setting: single agent at IC10, docetaxel study.
Where [10] appears, read: single agent at IC30, docetaxel study.
Where [11] appears, read: single agent at IC50, cisplatin/5-FU/compound A study.

Like-named read-outs stand apart in the source and are kept apart here.

For the compound `CN1CC[C@@H](c2c(O)cc(O)c3c(=O)cc(-c4ccccc4Cl)oc23)[C@@H]1CO.Cl` (relative stereo) [Compound A, (+)-trans-2-(2-Chloro-phenyl)-5,7-dihydroxy-8-(2-hydroxy-methyl-1-methyl-pyrrolidin-3-yl)-chromen-4-one hydrochloride], the IC10 in data set [1] is 0.1 µM; in data set [5], 0.08 µM. The results for the IC30 in data set [1], in data set [4] and in data set [5] were 0.5 µM, 0.1 µM and 0.2 µM, respectively. In addition, the IC50 in data set [1] worked out at 1.3 µM; in data set [4] (read-out: IC50), 0.4 µM; in data set [5], 1.3 µM. Moreover, the IC70 worked out at 12.1 µM in data set [1], 4.1 µM in data set [4] and 8.3 µM in data set [5]. The concentration for an effect of 90% (IC90) is 26.3 µM in data set [1], 33.3 µM in data set [4] and 28.3 µM in data set [5]. Also, the “% Cytotoxicity” value in data set [2] (single agent at IC50 (compound A 1.3 μM), lapatinib study) turned out to be 22%; in data set [2] (setting [8]), 18.02%; in data set [2] (single agent at IC70, erlotinib study), 34.32%; in data set [7], 29%. Moreover, the cytotoxicity in data set [3] turned out to be 18%. In data set [6], the “Tumor Growth inhibition (%)” value worked out at 11%.
In data set [1], `N.N.[Cl][Pt][Cl]` [Cisplatin] came in with an IC10 of 0.3 µM, an IC30 of 3 µM, an IC50 of 14.6 µM and an IC70 of 43.2 µM. Moreover, the 90% effect level in data set [1] (IC90) was put at 74.5 µM. Moreover, in data set [5], the IC10 came out at 0.25 µM, the IC30 worked out at 3 µM, the IC50 amounted to 8.3 µM and the IC70 worked out at 30 µM. The compound also had an IC90 in data set [5] of 74 µM. Moreover, the “Tumor Growth inhibition (%)” value in data set [6] came to 4%.
`O=c1[nH]cc(F)c(=O)[nH]1` [Compound 5-FU]: the IC10 in data set [1] and in data set [5] was 0.31 µM each time. In addition, the results for the IC30 in data set [1] and in data set [5] were 1.1 µM and 2.3 µM, respectively. For the same compound, the IC70 amounted to 17.6 µM in data set [1] and 22.4 µM in data set [5]. For the same compound, the results for the IC50 in data set [1] (Homo sapiens) and in data set [5] (Homo sapiens) were 6.3 µM and 11.6 µM, respectively. Further, the IC90 in data set [1] (Homo sapiens) turned out to be 33.4 µM; in data set [5] (Homo sapiens) it was 38.3 µM. The “% Cytotoxicity” value is 9.49% in data set [2] (setting [9]); 15.39% in data set [2] (setting [10]); 16.21% in data set [2] (setting [11]); 19.54% in data set [2] (setting [8]); 12.59% in data set [2] (single agent at IC90, cisplatin/5-FU/compound A study); 6.81% in data set [3] (setting [9]). Moreover, the “% Cytotoxicity” value in data set [3] (single agent at IC30, cisplatin/5-FU/compound A study) is recorded as 17.81%; in data set [3] (setting [10]), 19.29%; in data set [3] (setting [11]), 21.1%; in data set [3] (setting [8]), 28.6%.
